Read-outs that look alike come from different tables or passages of the source.
How the values were obtained:
[1] = molecular target: ACC2 (Homo sapiens (Human), UniProt O00763); assay: In vitro inhibitory activity test of acetyl-CoA carboxylase (ADP-Glo Kinase Analysis), ACC2; assay type: biochemical
Description: (§1) The in vitro inhibitory effects of the compounds on ACC1 or ACC2 were tested by ADP-Glo™ Kinase Analysis Kit from Promega Company. The ADP-Glo™ Kinase Analysis was a luminescent ADP detection analysis, which was used to measure enzyme activity by quantifying the amount of ADP produced during the enzyme reaction. The analysis was performed with two steps: first, after the enzyme reaction, ADP-Glo™ reagent was added to stop the reaction and deplete the remaining ATP; then, a kinase detection reagent was added to simultaneously convert ADP to ATP and the newly synthesized ATP was measured using the luciferase/luciferin reaction. The luminescence can be correlated to the ADP concentration by using the ATP to ADP conversion curve.
(§2) The specific steps are as follows: • a. 4.5 μL/well of ACC1/ACC2 working solution (2.22 nM) was added to a 384-well reaction plate (PerkinElmer, 6007290); • b. The compound (10 mM stock solution) was diluted 500 times to 20 μM with 100% DMSO, and diluted in a ratio of 1:3 in a 384 dilution plate (3657, corning). The gradient concentrations of the compound were 20, 6.67, 2.22 0.74, 0.25, 0.082, 0.027, 0.009, 0.003, 0.001, 0 μM; • c. 0.5 μL/well of the compound solution (prepared in step b) was transferred to the 384-well reaction plate (prepared in step a), then plate was centrifuged at 1000 rpm and incubated at 25° C. for 15 minutes; • d. […] Relative luminescence unit (RLU) was read on an Envision multifunction plate reader. […]
(§3) The average values of each concentration and the data of the positive and negative controls were calculated, as well as the standard deviation. The percentage of inhibition was calculated by the formula: 100×(average negative control−compound)/(average negative control−average positive control). The IC50 for each compound was calculated by fitting the data with a nonlinear regression equation: Y=Bottom+(Top−Bottom)/(1+10^((Log IC50−X)×HillSlope)), wherein X is the log of compound concentration and Y is the percentage of inhibition.

[2] = molecular target: ACC1 (Homo sapiens (Human), UniProt Q13085); assay: In vitro inhibitory activity test of acetyl-CoA carboxylase (ADP-Glo Kinase Analysis), ACC1; assay type: biochemical
Description: as §1, §2, §3

[3] = Tissue distribution (liver/plasma) in mice after intragastric administration, LC-MS/MS; assay type: in vivo, C57BL/6 mice; settings: C57BL/6 male mice; for Kp at 0.5 h / Kp at 1 h / Kp at 2 h / concentration at 0.5 h / concentration at 1 h / concentration at 2 h: mouse, oral, 5 ml/kg; for Kp at 0.5 h / Kp at 1 h / Kp at 2 h: liver/plasma; for Kp at 0.5 h: read-out: Partition ratios of liver and plasma 0.5 h; for Kp at 1 h: read-out: Partition ratios of liver and plasma 1 h; for Kp at 2 h: read-out: Partition ratios of liver and plasma 2 h
Description: C57BL/6 mice were used as the test animals, the LC-MS/MS method was used to determine the drug concentration in plasma and liver at different times after the mice were administered intragastrically the compounds of Examples 1 to 3 and A13. Pharmacokinetic properties of the compounds of the present invention in mice were studied.
The prescriptions of A13, Example 1 and Example 2 were: 5% DMSO+5% Kolliphor HS15+90% Saline
The prescription of Example 3 was: 10% DMSO+10% Kolliphor HS15+80% Saline
Healthy adult C57BL/6 male mice, purchased from Hunan Slack Jingda Experimental Animal Co., Ltd., with an animal weight of 18-24 g, were administered intragastrically at a dosage of […] and a volume of 10 ml/kg.
Bloods were collected from the orbit at different time points, and the whole blood samples were placed in an anticoagulation tube containing EDTA-K2; the plasma was separated by centrifugation (centrifugation conditions: 12000 rpm, 2 min) and the upper plasma sample was collected and placed into a sample tube.
Animals were dissected and collected livers at different time points, a certain mass of liver tissue was weighed, 5 times the volume (m/V) of methanol solution was added to the homogenization tube, then homogenized at 60 hz for 2 minutes and centrifuged at 4° C. for 2 minutes, the supernatant was taken to obtain the liver homogenate.
LC-MS/MS was used to analyze the content of the test compounds in the plasma and liver of the mice after the compounds were administered intragastrically.

[4] = Liver microsome stability test; assay type: in vitro ADME; settings: mouse liver microsomes, Conc. 1 μM; for half-life at 1 μM: male, CD-1; for Remaining (%) (NCF = 60 min): no cofactor (buffer instead of NADPH); for Remaining (%) (T = 60 min): with NADPH
Description: Male CD-1 mouse liver microsomes, purchased from BD Gentest.
Preparation of stock solution: a certain amount of test compound of A13 and Example 1 were weighed to prepare a stock solution with a concentration of 10 mM with DMSO, and stored in a refrigerator at −20° C.
Preparation of NADPH solution: a certain amount of NADPH to be tested was weighed and prepared a solution with a concentration of 6 mM with 0.1 M potassium phosphate buffer (5 mg of NADPH was weighed and added to 1 mL of potassium phosphate buffer, the concentration was equivalent to 6 mM).
Preparation of compound dosing solution: 100 μM dosing solution: 5 μL of 10 mM stock solution was added to 495 μL of acetonitrile:water (1:1); 30 μM dosing solution: 60 μL of 100 μM dosing solution was added to 140 μL of 0.1 M potassium phosphate buffer; 1.5 μM dosing solution: 25 μL of 30 μM dosing solution and 18.8 μL (20 mg/mL) of liver microsomes were added to 456.2 μL of 0.1 M potassium phosphate buffer, one for each species.
μ30 μL of 1.5 μM dosing solution of the compound was added to a 96-well plate, 150 μL or 200 μL of acetonitrile internal standard was added immediately to the plate, then 15 μL of NADPH solution (6 mM) was added to the plate, the mixture was mixed well and placed in a 4° C. refrigerator as the initial 0 point sample, each drug was made two holes in parallel.
30 μL of 1.5 μM dosing solution was added to positions set at different time points in the 96-well plate, each drug was made two holes in parallel, and the pleat was preheated at 37° C. for 10 min.
After pre-incubation, 15 μL of NADPH solution (6 mM) was added to the well set at the time point of 60 min, at the time point of NCF60, 15 μL of potassium phosphate buffer salt solution was added at the same time to start the reaction and start timing. Then after 40 min, 15 μL of NADPH solution was added to the well set at 20 min. After 20 min, the incubation was over. 150 or 200 μL of acetonitrile internal standard was added to the positions set at all time points. The plate was centrifuged at 4000 rpm for 5 min, 50 μL supernatant was taken out and diluted with 150 μL water for sample analysis.
The initial 0 point was used as 100%, the relative content of the drug at each time point was calculated. GraphPad Prism5 software was used to plot the “relative content of the drug” versus “incubation time” to calculate the half-life of the drug and calculate the intrinsic clearance rate.

[5] = liver, read-out: Average tissue concentrations (liver) 0.5 h
[6] = liver, 1 h, read-out: Average tissue concentrations (liver) 1 h
[7] = liver, read-out: Average tissue concentrations (liver) 2 h
[8] = plasma, read-out: Average concentration (plasma) 0.5 h
[9] = plasma, 1 h, read-out: Average concentration (plasma) 1 h
[10] = plasma, read-out: Average concentration (plasma) 2 h

Chain of ACC2 (O00763 whole entry, species assumed): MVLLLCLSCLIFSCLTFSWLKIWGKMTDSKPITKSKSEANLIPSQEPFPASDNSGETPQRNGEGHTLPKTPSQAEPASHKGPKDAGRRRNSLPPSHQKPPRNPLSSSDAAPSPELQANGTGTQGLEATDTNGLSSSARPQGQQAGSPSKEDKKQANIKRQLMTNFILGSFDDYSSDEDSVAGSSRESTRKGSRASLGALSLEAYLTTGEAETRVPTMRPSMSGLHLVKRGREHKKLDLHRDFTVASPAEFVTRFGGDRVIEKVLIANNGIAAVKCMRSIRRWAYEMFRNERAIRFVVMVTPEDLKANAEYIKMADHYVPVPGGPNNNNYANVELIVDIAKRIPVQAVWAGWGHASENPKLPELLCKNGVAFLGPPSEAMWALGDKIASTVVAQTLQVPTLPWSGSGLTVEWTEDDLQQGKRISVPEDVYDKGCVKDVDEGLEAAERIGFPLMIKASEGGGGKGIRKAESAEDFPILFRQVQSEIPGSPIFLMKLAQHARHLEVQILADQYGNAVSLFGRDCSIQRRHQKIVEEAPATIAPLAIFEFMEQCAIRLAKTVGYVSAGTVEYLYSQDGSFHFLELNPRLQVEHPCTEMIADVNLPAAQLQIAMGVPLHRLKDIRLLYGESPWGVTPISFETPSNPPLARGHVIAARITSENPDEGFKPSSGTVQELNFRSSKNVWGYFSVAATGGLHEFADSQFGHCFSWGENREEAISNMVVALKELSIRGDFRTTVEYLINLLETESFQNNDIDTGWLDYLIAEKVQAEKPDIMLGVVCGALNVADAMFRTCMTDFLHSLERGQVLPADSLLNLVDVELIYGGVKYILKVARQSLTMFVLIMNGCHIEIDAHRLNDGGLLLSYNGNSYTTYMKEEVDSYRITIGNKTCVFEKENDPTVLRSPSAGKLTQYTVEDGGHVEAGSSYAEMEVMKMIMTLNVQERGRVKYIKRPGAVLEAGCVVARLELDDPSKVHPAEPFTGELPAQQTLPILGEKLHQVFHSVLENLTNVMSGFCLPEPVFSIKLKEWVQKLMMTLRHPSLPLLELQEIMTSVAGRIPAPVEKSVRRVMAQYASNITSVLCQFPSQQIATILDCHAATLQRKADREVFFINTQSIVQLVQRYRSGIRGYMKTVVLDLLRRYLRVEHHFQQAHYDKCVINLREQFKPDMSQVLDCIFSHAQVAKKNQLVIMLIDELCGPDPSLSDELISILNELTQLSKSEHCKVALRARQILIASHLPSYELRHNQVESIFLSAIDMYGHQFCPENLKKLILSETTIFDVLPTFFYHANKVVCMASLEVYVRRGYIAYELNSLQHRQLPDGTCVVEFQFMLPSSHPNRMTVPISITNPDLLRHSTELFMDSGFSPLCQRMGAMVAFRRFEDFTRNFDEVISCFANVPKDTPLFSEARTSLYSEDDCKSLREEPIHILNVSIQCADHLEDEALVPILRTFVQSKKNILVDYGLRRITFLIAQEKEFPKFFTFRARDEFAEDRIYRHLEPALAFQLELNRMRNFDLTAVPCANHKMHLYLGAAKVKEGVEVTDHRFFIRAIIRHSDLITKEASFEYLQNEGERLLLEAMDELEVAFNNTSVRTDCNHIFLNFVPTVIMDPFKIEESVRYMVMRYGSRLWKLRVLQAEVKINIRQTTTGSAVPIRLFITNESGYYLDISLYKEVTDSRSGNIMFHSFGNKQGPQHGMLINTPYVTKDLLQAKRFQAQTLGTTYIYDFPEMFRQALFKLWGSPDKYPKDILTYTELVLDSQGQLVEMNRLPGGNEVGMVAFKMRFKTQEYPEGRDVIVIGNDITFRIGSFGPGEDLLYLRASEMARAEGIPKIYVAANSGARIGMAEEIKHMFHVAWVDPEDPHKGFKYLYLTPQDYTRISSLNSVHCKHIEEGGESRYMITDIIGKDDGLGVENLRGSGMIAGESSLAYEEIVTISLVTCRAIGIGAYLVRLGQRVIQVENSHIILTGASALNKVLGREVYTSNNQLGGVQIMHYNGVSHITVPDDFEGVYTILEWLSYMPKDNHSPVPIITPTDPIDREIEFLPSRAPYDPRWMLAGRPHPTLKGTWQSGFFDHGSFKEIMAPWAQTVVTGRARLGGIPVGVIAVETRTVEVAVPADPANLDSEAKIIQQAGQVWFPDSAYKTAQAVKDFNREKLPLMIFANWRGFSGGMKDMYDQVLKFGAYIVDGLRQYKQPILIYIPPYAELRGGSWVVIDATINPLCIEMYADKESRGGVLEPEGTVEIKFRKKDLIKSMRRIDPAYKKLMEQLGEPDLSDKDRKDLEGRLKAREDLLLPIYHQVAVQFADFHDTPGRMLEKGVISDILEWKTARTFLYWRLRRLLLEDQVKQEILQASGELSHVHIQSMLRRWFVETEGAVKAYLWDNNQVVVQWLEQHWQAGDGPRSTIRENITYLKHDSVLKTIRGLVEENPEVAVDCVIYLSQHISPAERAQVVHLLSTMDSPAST

IC50 [1] [nM] | IC50 [2] [nM] | Kp at 0.5 h [3] | Kp at 1 h ([3]; 1 h) | Kp at 2 h [3] | concentration at 0.5 h [3, 5] [ng/g] | concentration at 1 h [3, 6] [ng/g] | concentration at 2 h [3, 7] [ng/g] | concentration at 0.5 h [3, 8] [ng/g] | concentration at 1 h [3, 9] [ng/g] | concentration at 2 h [3, 10] [ng/g] | half-life at 1 μM [4] [h] | ClHep [4] [mL/min/kg] | Clin vivo [4] [mL/min/kg] | ER [4] | Remaining (%) (NCF = 60 min) [4] | Remaining (%) (T = 60 min) [4] | Partition ratios of liver and plasma 0.5 h [3] | Partition ratios of liver and plasma 2 h [3] | Average tissue concentrations (liver) 0.5 h ([3]; liver) [ng/g] | Structure (SMILES) | further results
3.82 | 1.09 | 190 | 120 | 180 | 70400 | 40600 | 16900 | 373 | 351 | 96.4 | – | – | – | – | – | – | – | – | – | COc1ccccc1[C@H](Cn1c(=O)n(C(C)(C)C(=O)O)c(=O)c2c(C)c(-c3ncco3)sc21)OC1C[C@@H]2COC[C@H]2C1 [Example 2, 2-[1-[(2R)-2-[[(3aS,6aS)-3,3a,4,5,6,6a-hexahydro-1H-cyclopenta[c]furan-5-yl]oxy]-2-(2-methoxyphenyl)ethyl]-5-methyl-6-oxazol-2-yl-2,4-dioxo-thieno[2,3-d]pyrimidin-3-yl]-2-methyl-propionic acid] | –
3.65 | 1.42 | – | – | – | – | – | – | – | – | – | 2.42 | 38.0 | 9.6 | 0.1 | 90.6 | 71.9 | 190 | 600 | 75000 | COc1ccccc1[C@H](Cn1c(=O)n(C(C)(C)C(=O)O)c(=O)c2c(C)c(-c3ncco3)sc21)OC1C[C@H]2COC[C@@H]2C1 [Example 1, 2-[1-[(2R)-2-[[(3aR,6aR)-3,3a,4,5,6,6a-hexahydro-1H-cyclopenta[c]furan-5-yl]oxy]-2-(2-methoxyphenyl)ethyl]-5-methyl-6-oxazol-2-yl-2,4-dioxo-thieno[2,3-d]pyrimidin-3-yl]-2-methyl-propionic acid] | Partition ratios of liver and plasma 1 h ([3]; 1 h): 140; Average tissue concentrations (liver) 1 h ([3]; liver, 1 h): 48300 ng/g; Average tissue concentrations (liver) 2 h ([3]; liver): 35500 ng/g; Average concentration (plasma) 0.5 h ([3]; plasma): 391 ng/g; Average concentration (plasma) 1 h ([3]; plasma, 1 h): 336 ng/g; Average concentration (plasma) 2 h ([3]; plasma): 59.1 ng/g
– | – | 86 | 130 | 170 | 61500 | 33300 | 14000 | 717 | 249 | 82.8 | 1.49 | 60.9 | 36.3 | 0.4 | 81.0 | 63.4 | – | – | – | COc1ccccc1C(Cn1c(=O)n(C(C)(C)C(=O)O)c(=O)c2c(C)c(-c3ncco3)sc21)OC1CC2COCC2C1 (racemic) [Example A13, reference compound] | –
2.43 | 0.23 | – | – | – | – | – | – | – | – | – | – | – | – | – | – | – | 122 | 104 | 75500 | COc1ccccc1[C@H](Cn1c(=O)n(C(C)(C)C(=O)O)c(=O)c2c(C)c(-c3ncco3)sc21)O[C@H]1C[C@H]2COC[C@H]2C1 [Example 3, 2-[1-[(2R)-2-[[(3aR,6aS)-3,3a,4,5,6,6a-hexahydro-1H-cyclopenta[c]furan-5-yl]oxy]-2-(2-methoxyphenyl)ethyl]-5-methyl-6-oxazol-2-yl-2,4-dioxo-thieno[2,3-d]pyrimidin-3-yl]-2-methyl-propionic acid] | Average tissue concentrations (liver) 2 h ([3]; liver): 26500 ng/g; Average concentration (plasma) 0.5 h ([3]; plasma): 669 ng/g; Average concentration (plasma) 2 h ([3]; plasma): 253 ng/g

Reference: patent US12428432B2, “Thienopyrimidine derivatives having stereo configurations and use thereof in medicine” (SUNSHINE LAKE PHARMA CO., LTD., priority 2019, dated 2025)
